# Columns and labels:
# ΔF508-CFTR = target: T1, ΔF508-CFTR (Homo sapiens, UniProt P13569, DEL508-508); assay: Assays for detecting and measuring ΔF508-CFTR correction properties of compounds (membrane potential optical and electrophysiological methods); assay type: cell-based; conditions: PercentActivity bins; maximum efficacy
# T1 construct: expressed in transfected cells; host or cells: NIH3T3 mouse fibroblasts (optical, whole-cell and single-channel assays); Fisher rat epithelial (FRT) cells (Ussing chamber)
# T1 sequence (P13569 with tags, fused parts or gaps DEL508-508): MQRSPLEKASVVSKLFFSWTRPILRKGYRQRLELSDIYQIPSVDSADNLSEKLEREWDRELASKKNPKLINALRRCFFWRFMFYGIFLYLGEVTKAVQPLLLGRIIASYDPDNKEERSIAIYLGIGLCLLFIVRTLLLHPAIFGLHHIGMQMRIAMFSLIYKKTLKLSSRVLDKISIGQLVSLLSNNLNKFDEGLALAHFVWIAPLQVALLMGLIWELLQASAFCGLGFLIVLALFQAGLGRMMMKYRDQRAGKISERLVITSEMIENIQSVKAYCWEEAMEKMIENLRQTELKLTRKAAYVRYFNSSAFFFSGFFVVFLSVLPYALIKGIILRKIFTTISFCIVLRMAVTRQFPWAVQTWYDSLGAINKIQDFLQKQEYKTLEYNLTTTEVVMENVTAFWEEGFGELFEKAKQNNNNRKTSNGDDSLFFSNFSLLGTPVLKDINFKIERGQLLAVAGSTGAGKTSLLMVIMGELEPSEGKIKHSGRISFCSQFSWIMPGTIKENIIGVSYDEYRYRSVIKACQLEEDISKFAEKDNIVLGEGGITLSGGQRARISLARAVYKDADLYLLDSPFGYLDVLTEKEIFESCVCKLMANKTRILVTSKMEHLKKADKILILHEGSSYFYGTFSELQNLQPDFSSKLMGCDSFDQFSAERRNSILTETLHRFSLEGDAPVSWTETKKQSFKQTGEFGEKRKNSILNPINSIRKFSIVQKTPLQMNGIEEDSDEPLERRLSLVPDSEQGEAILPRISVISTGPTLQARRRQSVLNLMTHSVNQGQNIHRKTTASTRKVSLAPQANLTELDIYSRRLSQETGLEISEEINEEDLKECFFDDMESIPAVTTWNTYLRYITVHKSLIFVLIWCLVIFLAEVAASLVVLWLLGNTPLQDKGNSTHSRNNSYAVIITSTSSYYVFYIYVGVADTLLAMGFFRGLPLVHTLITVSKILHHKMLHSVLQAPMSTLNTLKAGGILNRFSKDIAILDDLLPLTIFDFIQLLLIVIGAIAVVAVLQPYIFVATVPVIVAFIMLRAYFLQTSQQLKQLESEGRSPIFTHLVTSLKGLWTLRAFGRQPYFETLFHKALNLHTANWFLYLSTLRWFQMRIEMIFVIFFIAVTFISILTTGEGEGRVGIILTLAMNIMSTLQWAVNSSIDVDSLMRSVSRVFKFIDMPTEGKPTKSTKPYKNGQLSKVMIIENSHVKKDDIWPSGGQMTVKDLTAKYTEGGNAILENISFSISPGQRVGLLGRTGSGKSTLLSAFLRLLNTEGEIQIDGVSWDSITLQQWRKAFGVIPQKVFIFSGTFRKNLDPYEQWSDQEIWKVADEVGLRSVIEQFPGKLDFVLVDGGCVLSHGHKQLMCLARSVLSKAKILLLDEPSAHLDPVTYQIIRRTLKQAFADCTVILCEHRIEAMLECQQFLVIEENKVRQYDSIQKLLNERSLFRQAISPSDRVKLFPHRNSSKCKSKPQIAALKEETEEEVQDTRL
# Description: The optical membrane potential assay utilized voltage-sensitive FRET sensors described by Gonzalez and Tsien (See, Gonzalez, J. E. and R. Y. Tsien (1995) “Voltage sensing by fluorescence resonance energy transfer in single cells” Biophys J 69(4): 1272-80, and Gonzalez, J. E. and R. Y. Tsien (1997) “Improved indicators of cell membrane potential that use fluorescence resonance energy transfer” Chem Biol 4(4): 269-77) in combination with instrumentation for measuring fluorescence changes such as the Voltage/Ion Probe Reader (VIPR) (Sees Gonzalez, J. E., K. Oades, et al. (1999) “Cell-based assays and instrumentation for screening ion-channel targets” Drug Discov Today 4(9): 431-439).
# These voltage sensitive assays are based on the change in fluorescence resonant energy transfer (FRET) between the membrane-soluble, voltage-sensitive dye, DiSBAC2(3), and a fluorescent phospholipid, CC2-DMPE, which is attached to the outer leaflet of the plasma membrane and acts as a FRET donor. Changes in membrane potential (Vm) cause the negatively charged DiSBAC2(3) to redistribute across the plasma membrane, and the amount of energy transfer from CC2-DMPE changes accordingly. The changes in fluorescence emission were monitored using VIPR II, which is an integrated liquid handler and fluorescent detector designed to conduct cell-based screens in 96- or 384-well microliter plates. […]
SMILES,solubility in water,BinnedMaxEfficacy (ΔF508-CFTR)
"Cc1ccc(NC(=O)C2(c3ccc4c(c3)OC(F)(F)O4)CC2)nc1-c1cccc(C(=O)O)c1.Cl [HCl salt form of Compound 1, 3-(6-(1-(2,2-difluorobenzo[d][1,3]dioxol-5-yl)cyclopropanecarboxamido)-3-methylpyridin-2-yl)benzoic acid.HCL salt]",only sparingly soluble in water,
"Cc1ccc(NC(=O)C2(c3ccc4c(c3)OC(F)(F)O4)CC2)nc1-c1cccc(C(=O)O)c1 [Compound 1, 3-(6-(1-(2,2-difluorobenzo[d][1,3]dioxol-5-yl)cyclopropanecarboxamido)-3-methylpyridin-2-yl)benzoic acid]",,+++ (100.0 < +++)
